Results on 69 sequences are retold here after the OligoGym collection.

The target in one data set is ANGPTL2. The settings on record: ASO.
The next data set deals with MYH7. The settings on record: ASO, CC-2580, 5 µM.
For the next data set, the target named is KRAS. The following applies: ASO.

Where “and” joins values, the source holds several entries; their conditions need not be identical. Equal entries are not always repeated. After the bases stand the sugars from the 5' end (letter, count) and the backbone: PS all phosphorothioate, else s phosphorothioate and o phosphodiester by linkage. Methylation of C is not given here. e = 2'-O-(2-methoxyethyl) (MOE); l = locked nucleic acid (LNA); k = constrained ethyl (cEt); d = 2'-deoxy (DNA)

Take “AAGCATCATTGAAAATTC (sugars l4 d10 l4, PS)”: the target mRNA inhibition in the data set with ANGPTL2 (5 µM) was determined as 75.9%; with ANGPTL2 (25 µM) it was 85.1%.
As for “AAGCTGTTGAAATGTATG (sugars l3 d11 l4, PS)”, the target mRNA inhibition with ANGPTL2 (5 µM) was found to be 41.3%; with ANGPTL2 (25 µM), 30.4%.
For the sequence “AATTTACAGTTCTTTGTC (sugars l4 d10 l4, PS)”, the target mRNA inhibition is 78.2% in the data set with ANGPTL2 (5 µM) and 83.3% in the data set with ANGPTL2 (25 µM).
Take “ACATGTATATTATGAAGGTA (sugars l4 d14 l2, PS)”: the target mRNA inhibition in the data set with ANGPTL2 (5 µM) was 18.1%; in the data set with ANGPTL2 (25 µM) it was 8.64%.
In the case of “ACCATTTTGAGATTCCC (sugars l2 d13 l2, PS)”, the target mRNA inhibition with ANGPTL2 (5 µM) was 30%; with ANGPTL2 (25 µM), 24.7%.
Turning to “ACCATTTTGAGATTCCCC (sugars l1 d15 l2, PS)”, the target mRNA inhibition with ANGPTL2 (5 µM) is -8.3%; with ANGPTL2 (25 µM), 18.9%.
In the case of “ACTAAATGAACTTCCACA (sugars l4 d11 l3, PS)”, the results for the target mRNA inhibition with ANGPTL2 (5 µM) and with ANGPTL2 (25 µM) were 44.6% and 64.9%, respectively.
In the same order, the values of “ACTTCTATTCTTGGACC (sugars l2 d13 l2, PS)” are 47.8% and 55.7%.
Take ATGATGCGGTTGTAGG (sugars l2 d11 l3, PS): the target mRNA inhibition amounted to 69.8% with ANGPTL2 (5 µM) and 81.1% in the data set with ANGPTL2 (25 µM).
The matching figures for “ATTTTGAGATTCCCCCAAAG (sugars l1 d17 l2, PS)”: 10.8% and 2.99%.
The matching figures for “CAAGAGGGAGGGGAGGACA (sugars l1 d16 l2, PS)”: 36.8% and 42.9%.
On to “CAGCTTGGCGATGATCT (sugars l1 d2 l1 d11 l2, PS)”, for which, in the data set with MYH7, the target mRNA inhibition was 27% and 2%.
With “CAGCTTGGCGATGATCT (sugars l2 d9 l1 d3 l2, PS)”, the target mRNA inhibition with MYH7 is 60% and 37%.
Turning to “CAGCTTGGCGATGATCT (sugars l3 d2 l1 d9 l2, PS)”, the target mRNA inhibition with MYH7 was 75% and 59%.
In the case of “CAGCTTGGCGATGATCT (sugars ldddddddddlldldll, PS)”, in the data set with MYH7, the target mRNA inhibition was 47% and 30%.
For “CAGCTTGGCGATGATCT (sugars lddlddddddddldlll, PS)”, the target mRNA inhibition with MYH7 is 48% and 26%.
As for “CAGCTTGGCGATGATCT (sugars lddldddddddlddlll, PS)”, the target mRNA inhibition with MYH7 is 3% and -1%.
Regarding “CAGCTTGGCGATGATCT (sugars lddldddddddllddll, PS)”, in the data set with MYH7, the target mRNA inhibition was -2% and -12%.
In the case of “CAGCTTGGCGATGATCT (sugars lddlddddddlddllll, PS)”, the target mRNA inhibition in the data set with MYH7 is 29% and 23%.
Regarding “CAGCTTGGCGATGATCT (sugars lddlddddddldlddll, PS)”, the target mRNA inhibition in the data set with MYH7 was 11% and 15%.
The same measure, in the same setting: the figure for “CAGCTTGGCGATGATCT (sugars lddlddddddllddlll, PS)” is 16% and 14%.
As to “CAGGCCAACACTAACTCGG (sugars l1 d16 l2, PS)”, the target mRNA inhibition came out at 49% with ANGPTL2 (5 µM) and 57% with ANGPTL2 (25 µM).
For “CATCTAAGGAATGTGGT (sugars l4 d11 l2, PS)”, the target mRNA inhibition is 63.7% with ANGPTL2 (5 µM) and 71.9% with ANGPTL2 (25 µM).
As to “CCAACCATAAATTAATTG (sugars l4 d10 l4, PS)”, the target mRNA inhibition in the data set with ANGPTL2 (5 µM) was determined as 61.8%; in the data set with ANGPTL2 (25 µM), 74.5%.
In the case of “CCACACCCAACATTTTA (sugars l2 d13 l2, PS)”, the target mRNA inhibition with ANGPTL2 (5 µM) is 56.8%; with ANGPTL2 (25 µM), 63%.
In the case of “CCAGTTCCTGAAGAAGTTA (sugars l1 d15 l3, PS)”, the values for the target mRNA inhibition in the data set with ANGPTL2 (5 µM) and in the data set with ANGPTL2 (25 µM) were 27.8% and 30.1%, respectively.
In the same order, the values of “CCATTTTGAGATTCCCC (sugars l1 d14 l2, PS)” are 26.4% and 11.8%.
The matching figures for “CCTGGTAAAATCTTACA (sugars l3 d11 l3, PS)”: 37.4% and 48.2%.
Take “CTAGATTTCTTTCAGTTTG (sugars l2 d14 l3, PS)”: the target mRNA inhibition in the data set with ANGPTL2 (5 µM) is 62.7% and 67.4%; in the data set with ANGPTL2 (25 µM), 67.5% and 77.3%.
For “CTAGGCACTCAATCCCA (sugars l1 d14 l2, PS)”, the target mRNA inhibition stood at 21.9% with ANGPTL2 (5 µM) and 31.5% with ANGPTL2 (25 µM).
On to “CTGGTTGATGATGCGGTTG (sugars l1 d16 l2, PS)”, for which the values for the target mRNA inhibition with ANGPTL2 (5 µM) and with ANGPTL2 (25 µM) were 52.7% and 60.5%, respectively.
Consider “GAAATGTTATCTAATACT (sugars l4 d10 l4, PS)”, for which the target mRNA inhibition in the data set with ANGPTL2 (5 µM) stood at 34.5%; with ANGPTL2 (25 µM), 49%.
For the sequence “GAACTCAGCCCAGTAGAC (sugars l1 d15 l2, PS)”, the figures for the target mRNA inhibition in the data set with ANGPTL2 (5 µM) and in the data set with ANGPTL2 (25 µM) were -4.7% and 17.5%, respectively.
Consider “GAATTTTCTTTACCTTAG (sugars l4 d11 l3, PS)”, for which the target mRNA inhibition in the data set with ANGPTL2 (5 µM) was 41.4%; with ANGPTL2 (25 µM), 56%.
“GAGTTTGGATCATAGAA (sugars l4 d10 l3, PS)”: the target mRNA inhibition in the data set with ANGPTL2 (5 µM) came to 41.2%; in the data set with ANGPTL2 (25 µM), 65.8%.
“GATGATGCGGTTGTAGG (sugars l2 d13 l2, PS)”: the target mRNA inhibition in the data set with ANGPTL2 (5 µM) came out at 67%; in the data set with ANGPTL2 (25 µM) it was 78%.
In the same order, the values of “GATGATGCGGTTGTAGGT (sugars l1 d15 l2, PS)” are 62.4% and 73%.
For the sequence “GCAGCTCATTGTTGAGCA (sugars l1 d15 l2, PS)”, the figures for the target mRNA inhibition with ANGPTL2 (5 µM) and in the data set with ANGPTL2 (25 µM) were -2.7% and -0.5%, respectively.
Turning to “GCATTCCTCAGACAAATC (sugars l2 d14 l2, PS)”, the figures for the target mRNA inhibition in the data set with ANGPTL2 (5 µM) and in the data set with ANGPTL2 (25 µM) were 43.6% and 56.9%, respectively.
On to GCTTGCGGATGATCTC (sugars l2 d12 l2, PS), for which the figures for the target mRNA inhibition with ANGPTL2 (5 µM) and with ANGPTL2 (25 µM) were 38% and 70.9%, respectively.
The matching figures for GTAGGTAGGCGAGGAG (sugars l2 d12 l2, PS): 16.3% and -18.7%.
For “GTGCCAAATCCTAGACA (sugars l2 d13 l2, PS)”, the target mRNA inhibition stood at 54.5% in the data set with ANGPTL2 (5 µM) and 68.2% in the data set with ANGPTL2 (25 µM).
For the sequence “GTGCTCTGTGAAGATTA (sugars l2 d11 l4, PS)”, the target mRNA inhibition in the data set with ANGPTL2 (5 µM) came out at 66.6%; in the data set with ANGPTL2 (25 µM), 81.3%.
In the same order, the values of “GTTCTCCAGGGAAGTGTA (sugars l1 d15 l2, PS)” are 47.4% and 57.7%.
In the case of “GTTTCTGACAAAGCCCG (sugars l1 d13 l3, PS)”, the target mRNA inhibition with ANGPTL2 (5 µM) was found to be 79.6%; with ANGPTL2 (25 µM), 84.3%.
In the same order, the values of “TAGCAGATGGGGCACAA (sugars l1 d12 l4, PS)” are 22.9% and 12.4%.
Consider “TCAGTGGTGAGATGGGTCAC (sugars l1 d17 l2, PS)”, for which the target mRNA inhibition in the data set with ANGPTL2 (5 µM) was 29.1%; with ANGPTL2 (25 µM), 40.7%.
The matching figures for “TCTCCTAAGAGCAAAGCT (sugars l2 d14 l2, PS)”: 37.2% and 52.9%.
Turning to “TGAATGGAAGATACAAAACT (sugars l4 d12 l4, PS)”, the target mRNA inhibition stood at 11.6% with ANGPTL2 (5 µM) and 44.7% with ANGPTL2 (25 µM).
The matching figures for TGATGATGCGGTTGTA (sugars l3 d11 l2, PS): 73.8% and 85.9%.
Consider “TGATGATGCGGTTGTAGGT (sugars l1 d16 l2, PS)”, for which the results for the target mRNA inhibition with ANGPTL2 (5 µM) and with ANGPTL2 (25 µM) were 45.5% and 63.9%, respectively.
In the case of “TGATGTGGTGAGACAGTA (sugars l2 d14 l2, PS)”, the target mRNA inhibition turned out to be 53.6% in the data set with ANGPTL2 (5 µM) and 70.5% with ANGPTL2 (25 µM).
Turning to “TGGTTGATGATGCGGTT (sugars l2 d13 l2, PS)”, the target mRNA inhibition in the data set with ANGPTL2 (5 µM) amounted to 81.7%; with ANGPTL2 (25 µM), 87.5%.
In the case of “TGTTTATGCAATGTTA (sugars kkddddddddkekekk, PS)”, the target mRNA inhibition in the data set with KRAS (A431, 0.185 µM) was determined as 22%; with KRAS (A431, 0.556 µM), 47%; with KRAS (A431, 1.667 µM), 68%; with KRAS (A431, 2 µM), 56%; with KRAS (A431, 5 µM), 76%.
As for “TTACATGCCGCCAGAGGAA (sugars l1 d16 l2, PS)”, the target mRNA inhibition is 45.6% with ANGPTL2 (5 µM) and 52.3% with ANGPTL2 (25 µM).
Regarding TTAGGGGAATTACAAG (sugars k3 d10 k3, PS), the target mRNA inhibition in the data set with KRAS (A431, 2 µM) worked out at 23%.
Regarding TTAGTGATTAGGTCAA (sugars k3 d10 k3, PS), the target mRNA inhibition is 32% with KRAS (A431, 0.185 µM); 56% in the data set with KRAS (A431, 0.556 µM); 68% with KRAS (A431, 1.667 µM); 59% and 51% and 52% with KRAS (A431, 2 µM); 82% with KRAS (A431, 5 µM).
Turning to “TTAGTGATTAGGTCAA (sugars kddddddddddkekek, PS)”, in the data set with KRAS (A431, 2 µM), the target mRNA inhibition was found to be 12%.
Consider “TTAGTGATTAGGTCAA (sugars kdddddddddkekeke, PS)”, for which the target mRNA inhibition in the data set with KRAS (A431, 2 µM) is 0%.
As to “TTAGTGATTAGGTCAA (sugars kkkdddddddddkeke, PS)”, the target mRNA inhibition with KRAS (A431, 2 µM) stood at 32%.
Take “TTATAAAGACAAGAGCCT (sugars l3 d12 l3, PS)”: the figures for the target mRNA inhibition with ANGPTL2 (5 µM) and with ANGPTL2 (25 µM) were 34.5% and 47.3%, respectively.
For the sequence TTATAGGGTGGAATAAA (sugars l4 d9 l4, PS), the target mRNA inhibition with ANGPTL2 (5 µM) came out at 18.2%; with ANGPTL2 (25 µM), 26.9%.
Take “TTCTCCTAGAAAGCAGT (sugars l1 d12 l4, PS)”: the target mRNA inhibition with ANGPTL2 (5 µM) worked out at 43%; with ANGPTL2 (25 µM), 61.9%.
In the case of TTCTGATGTGACTCAG (sugars k3 d10 k3, PS), the target mRNA inhibition with KRAS (A431, 2 µM) was found to be 26%.
“TTCTGGTAGTGGGCACAG (sugars l1 d15 l2, PS)”: the target mRNA inhibition with ANGPTL2 (5 µM) stood at 36.8%; with ANGPTL2 (25 µM), 37.1%.
Consider “TTGATGATGCGGTTGTAGG (sugars l1 d16 l2, PS)”, for which the target mRNA inhibition in the data set with ANGPTL2 (5 µM) came out at 44.8%; in the data set with ANGPTL2 (25 µM), 55.9%.
With “TTGATTTGTCAGCAGG (sugars kddddddddddkekek, PS)”, in the data set with KRAS (A431, 2 µM), the target mRNA inhibition was 17%.
On to TTGTTGAGCTATCCAA (sugars k3 d10 k3, PS), for which the target mRNA inhibition with KRAS (A431, 2 µM) was 3%.
Consider TTTAAAAAAAAAATTA (sugars k3 d10 k3, PS), for which the target mRNA inhibition with KRAS (A431, 2 µM) is 3%.
